According to US12037324B2, “Biarylmethyl heterocycles” (Université de Montréal, priority 2016, dated 2024):

Columns and labels:
AGTR1 [1] = biological target: T1, AGTR1 (Homo sapiens, UniProt P30556); test: DiscoveRx β-arrestin2 recruitment assay (enzyme complementation, Pathunter CHO-K1 AGTR1 β-arrestin cell line); type: cell-based; details: for DiscoveRx β-arrestin2 Ymax (%): maximal response
T1 construct: host or cells: Pathunter CHO-K1 AGTR1 β-arrestin cell line (CHO-K1)
T1 sequence (P30556 1-359): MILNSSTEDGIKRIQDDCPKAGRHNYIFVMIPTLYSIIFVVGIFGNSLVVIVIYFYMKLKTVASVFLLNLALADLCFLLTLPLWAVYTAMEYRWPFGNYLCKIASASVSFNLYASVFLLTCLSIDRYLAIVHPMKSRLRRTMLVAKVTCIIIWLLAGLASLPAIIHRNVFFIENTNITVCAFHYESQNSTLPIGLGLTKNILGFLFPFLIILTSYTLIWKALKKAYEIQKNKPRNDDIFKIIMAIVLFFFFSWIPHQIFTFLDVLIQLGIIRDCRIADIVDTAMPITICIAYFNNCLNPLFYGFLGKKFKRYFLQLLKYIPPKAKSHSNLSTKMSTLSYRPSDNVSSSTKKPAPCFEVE
Outline: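 Chemiluminescent enzyme-complementation read-out of β-arrestin2 recruitment to AGTR1 in engineered CHO-K1 cells after 90 min compound exposure at 37° C. Values are 4-parameter logistic EC50s in agonist mode, IC50s in antagonist mode, with efficacy relative to the maximal All response.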

AGTR1 [2] = biological target: T1, AGTR1; test: DiscoveRx IP1 accumulation assay (HTRF), agonist mode, Pathunter CHO-K1 AGTR1 β-arrestin cell line; type: cell-based; details: for EC50: read-out: IP-1 EC50
Outline: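 Agonist mode in CHO-K1 AGTR1 β-arrestin cells plated 14-16 h before; compounds at varying concentrations for 90 min at 37° C, IP1 accumulation read by HTRF (D2-conjugate and anti-IP1 cryptate, 20 min room temperature). EC50 from 4-parameter logistic fit; activity given as percentage of maximal AII effect.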

hAT1R [3] = biological target: T2, hAT1R (Homo sapiens, UniProt P30556); test: BRET β-arrestin2 biosensor assay, higher receptor expression (hAT1R 5 ng/well), HEK293 cells; type: cell-based; details: for EC50: High AT1R Expression
T2 sequence (P30556 1-359): T1 sequence (P30556 1-359)

hAT1R [4] = biological target: T2, hAT1R; test: cell-based
hAT1R [5] = biological target: T2, hAT1R; test: cell-based; details: agonist mode; for EC50: read-out: BRET P63 EC50
[6] = DiscoveRx β-arrestin2 recruitment
[7] = section of the 42nd table ending at r951, example numbering restarts after the DiscoveRx section, read-out: β-arrestin2 EC50

| SMILES | EC50 (AGTR1 [1]; [6]) [nM] | DiscoveRx β-arrestin2 Ymax (%) (AGTR1 [1]; [6]) | IP-1 Ymax (%) (AGTR1 [2]) | EC50 (AGTR1 [2]) [nM] | BRET β-Arrestin2 High AT1R Expression Ymax (%) (hAT1R [3]) | EC50 (hAT1R [3]) [nM] | BRET β-Arrestin2 Low AT1R Expression Ymax (%) (hAT1R [4]; Low AT1R Expression) | EC50 (hAT1R [4]; Low AT1R Expression, read-out: BRET β-Arrestin2 Low AT1R Expression EC50) [nM] | BRET P63 Ymax (hAT1R [5]) [%] | EC50 (hAT1R [5]) [nM] | EC50 (AGTR1 [1]) [nM] | EC50 (hAT1R [4]; [7]) [nM] |
| --- | --- | --- | --- | --- | --- | --- | --- | --- | --- | --- | --- | --- |
| CCc1nc2c(C)cc(C)nc2n1Cc1ccc(-c2cc(-c3ccc(C(=O)N(C)C)cc3)ccc2-c2nn[nH]n2)cc1 [Example 11] | 9.9 | 36.3 | 3.8 | 17.8 | 79.2 | 22 | 16.9 | 35.3 | – | – | – | – |
| CCc1nc2c(C)cc(C)nc2n1Cc1ccc(-c2cc(-c3cccc(C)c3)ccc2C(=O)O)nn1 [Example 200, 3-(6-((2-ethyl-5,7-dimethyl-3H-imidazo[4,5-b]pyridin-3-yl)methyl)pyridazin-3-yl)-3′-methylbiphenyl-4-carboxylic acid] | 709 | 25.1 | 11.4 | 2720 | 54.3 | 1780 | – | – | 4.3 | 2040 | – | – |
| CCc1nc2c(C)cc(C)nc2n1Cc1ccc(-c2cc(-n3cc(C4=CCCC4)nn3)ccc2-c2nnn[nH]2)cc1 [Example 229] | 39 | 24.0 | 6.7 | 195 | 82.1 | 25.7 | – | – | – | > 100000 | – | – |
| CCc1nc2c(C)cc(C)nc2n1Cc1ccc(-c2cc(Oc3nccs3)ccc2-c2nn[nH]n2)cc1 [Example 252] | 34.3 | 15.8 | 8.8 | 144 | 41.4 | 29.4 | – | – | – | > 100000 | – | – |
| Cc1cnn(-c2ccc(-c3nn[nH]n3)c(-c3ccc(Cn4nc(C)nc4C)cc3)c2)c1 [Example 457, 5-(4′-((3,5-Dimethyl-1H-1,2,4-triazol-1-yl)methyl)-5-(4-methyl-1H-pyrazol-1-yl)-[1,1′-biphenyl]-2-yl)-2H-tetrazole] | – | – | – | – | – | – | – | – | – | – | 1140 | 993 |
| CCc1nc2c(C)cc(C)nc2n1Cc1ccc(-c2cc(Oc3cc(N)ccn3)ccc2-c2nn[nH]n2)cc1 [Example 249] | 23.8 | 34.2 | 17.6 | 70.5 | 80.3 | 8 | – | – | 6.6 | 9.5 | – | – |
| Cc1cnn(-c2ccc(-c3nn[nH]n3)c(-c3ccc(Cn4cnnc4C)cc3)c2)c1 [Example 459, 5-(5-(4-Methyl-1H-pyrazol-1-yl)-4′-((3-methyl-4H-1,2,4-triazol-4-yl)methyl)-[1,1′-biphenyl]-2-yl)-2H-tetrazole] | – | – | – | – | – | – | – | – | – | – | > 10000 | 1240 |
| CCc1nc2c(C)cc(C)nc2n1Cc1cnc(-c2cc(-c3cccc(C)c3)ccc2C(=O)O)cn1 [Example 199, 3-(5-((2-ethyl-5,7-dimethyl-3H-imidazo[4,5-b]pyridin-3-yl)methyl)pyrazin-2-yl)-3′-methylbiphenyl-4-carboxylic acid] | 273 | 34.2 | 9.3 | 713 | 88.5 | 223 | – | – | 9.6 | 571 | – | – |
| CCc1nc2c(C)cc(C)nc2n1Cc1ccc(-c2cc(-c3cn(Cc4ccccc4)nn3)ccc2-c2nnn[nH]2)cc1 [Example 238] | 198 | 22.4 | 9.6 | 1260 | 62.6 | 281 | – | – | – | > 100000 | – | – |
| CCc1nc2c(C)cc(C)nc2n1Cc1ncc(-c2cc(-c3cccc(C)c3)ccc2C(=O)O)cn1 [Example 198, 3-(2-((2-ethyl-5,7-dimethyl-3H-imidazo[4,5-b]pyridin-3-yl)methyl)pyrimidin-5-yl)-3′-methylbiphenyl-4-carboxylic acid] | 122 | 33.0 | 14.6 | 646 | 95.8 | 428 | – | – | 13.4 | 7620 | – | – |
| CCc1nc2c(C)cc(C)nc2n1Cc1ccc(-c2cc(-c3cccc(C)c3)ccc2C(=O)O)nc1 [Example 203, 3-(5-((2-ethyl-5,7-dimethyl-3H-imidazo[4,5-b]pyridin-3-yl)methyl)pyridin-2-yl)-3′-methyl-[1,1′-biphenyl]-4-carboxylic acid] | 162 | 32.3 | 34.9 | 5370 | 79.1 | 124 | – | – | 5.4 | 154 | – | – |
| Cc1ccnc(-c2ccc(-c3nn[nH]n3)c(-c3ccc(Cn4nc(C)nc4C)cc3)c2)c1 [Example 458, 2-(4′-((3,5-Dimethyl-1H-1,2,4-triazol-1-yl)methyl)-6-(2H-tetrazol-5-yl)-[1,1′-biphenyl]-3-yl)-4-methylpyridine] | – | – | – | – | – | – | – | – | – | – | 253 | 385 |
| CCc1nc2c(C)cc(C)nc2n1Cc1ccc(-c2cc(Oc3cncc(OC)c3)ccc2-c2nn[nH]n2)cc1 [Example 261] | 137 | 17.3 | 11.5 | 782 | 62.3 | 40 | – | – | – | > 100000 | – | – |
| Cc1nc(C)n(Cc2ccc(-c3cc(-c4ccccc4)ccc3-c3nn[nH]n3)cc2)n1 [Example 456, 5-(4″-((3,5-Dimethyl-1H-1,2,4-triazol-1-yl)methyl)-[1,1′:3′,1″-terphenyl]-4′-yl)-2H-tetrazole] | – | – | – | – | – | – | – | – | – | – | 1870 | 1970 |
| CCc1nc2c(C)cc(C)nc2n1Cc1ccc(-c2cc(-n3cc(CCO)nn3)ccc2-c2nnn[nH]2)cc1 [Example 226] | 242 | 17.5 | 6.7 | 499 | 35.0 | 348 | – | – | – | > 100000 | – | – |
| CCc1nc2c(C)cc(C)nc2n1Cc1ccc(-c2cc(-n3ccc(C(F)(F)F)n3)ccc2-c2nnn[nH]2)cc1 [Example 219] | 35.2 | 21.6 | 6.9 | 117 | – | – | – | – | – | – | – | 33.2 |
| CCc1nc2c(C)cc(C)nc2n1Cc1ccc(-c2cc(-c3ccc(C(=O)N(C)C)cc3)ccc2C(=O)O)cc1 [Example 185] | 139 | 48.9 | 13.8 | 204 | 86.7 | 149 | – | – | 11.7 | 447 | – | – |
| CCc1nc2c(C)cc(C)nc2n1Cc1cnc(-c2cc(-c3cccc(C)c3)ccc2C(=O)O)nc1 [Example 202, 3-(5-((2-ethyl-5,7-dimethyl-3H-imidazo[4,5-b]pyridin-3-yl)methyl)pyrimidin-2-yl)-3′-methylbiphenyl-4-carboxylic acid] | 1110 | 19.4 | 5.7 | 2940 | 52.0 | 1620 | – | – | – | > 100000 | – | – |
